Patent publication US8722656B2, “Cephalosporins useful as antibacterial agents” (Zoetis LLC, priority 2011, dated 2014)
Converted amounts (≈) assume the structure as drawn.

Legend:
E. coli 25922 = assay: Dilution antimicrobial susceptibility test (M07-A8), E. coli; type: cell-based, Escherichia coli; conditions: for MIC: Escherichia coli, antibacterial activity by dilution susceptibility test, isolate 25922; for E. coli/P. multocida: selectivity for P. multocida over E. coli (ratio of the two values)
Method: (§1) Compounds of the present invention were tested against an assortment of Gram-negative and Gram-positive organisms using the industrial standard techniques described in Methods for Dilution Antimicrobial Susceptibility Tests for Bacteria That grow Aerobically; Approved Standard-Eighth Edition, […]-A8, Vol. 29 No. 2 Replaces […]-A7 Vol. 26 No. 2. […] When comparing the activity against these isolates with that of the marketed human health drug of cefepime (screened in the same panel), the exemplified compounds of the present invention show >200 times more selectivity over E. coli.

P. multo 43719 = assay: Dilution antimicrobial susceptibility test (M07-A8), P. multocida; type: cell-based; conditions: Pasteurella multocida; antibacterial activity by dilution susceptibility test, isolate 43719
Method: as §1

M. haemo 43411 = assay: Dilution antimicrobial susceptibility test (M07-A8), M. haemolytica; type: cell-based; conditions: Mannheimia haemolytica; antibacterial activity by dilution susceptibility test, isolate 43411
Method: as §1

| SMILES | MIC (E. coli 25922) [µg/mL] | MIC (P. multo 43719) [µg/mL] | E. coli/P. multocida (E. coli 25922) | MIC (M. haemo 43411) [µg/mL] |
| --- | --- | --- | --- | --- |
| CO/N=C(\C(=O)N[C@@H]1C(=O)N2C(C(=O)O)=C(Cc3c(C)ccc(CSC(C)=O)c3C)CS[C@H]12)c1csc(N)n1 [Example 4, (6R,7R)-3-{3-[(acetylsulfanyl)methyl]-2,6-dimethylbenzyl}-7-{[(2Z)-2-(2-amino-1,3-thiazol-4-yl)-2-(methoxyimino)acetyl]amino}-8-oxo-5-thia-1-azabicyclo[4.2.0]oct-2-ene-2-carboxylic acid] | 32 (≈ 54.3 µM) | 0.25 (≈ 0.424 µM) | 128 | 0.5 (≈ 0.848 µM) |
| CO/N=C(\C(=O)N[C@@H]1C(=O)N2C(C(=O)O)=C(Cc3c(C)c(CO)cc(CSC(C)=O)c3C)CS[C@H]12)c1csc(N)n1 [Example 5, (6R,7R)-3-{3-[(acetylsulfanyl)methyl]-5-(hydroxymethyl)-2,6-dimethylbenzyl}-7-{[(2Z)-2-(2-amino-1,3-thiazol-4-yl)-2-(methoxyimino)acetyl]amino}-8-oxo-5-thia-1-azabicyclo[4.2.0]oct-2-ene-2-carboxylic acid] | 32 (≈ 51.6 µM) | 0.06 (≈ 0.0968 µM) | 533 | 0.125 (≈ 0.202 µM) |
| CO/N=C(\C(=O)N[C@@H]1C(=O)N2C(C(=O)O)=C(Cc3c(C)cc(CSC(C)=O)cc3C)CS[C@H]12)c1csc(N)n1 [Example 6, (6R,7R)-3-{4-[(acetylsulfanyl)methyl]-2,6-dimethylbenzyl}-7-{[(2Z)-2-(2-amino-1,3-thiazol-4-yl)-2-(methoxyimino)acetyl]amino}-8-oxo-5-thia-1-azabicyclo[4.2.0]oct-2-ene-2-carboxylic acid] | 32 (≈ 54.3 µM) | 0.25 (≈ 0.424 µM) | 128 | 0.5 (≈ 0.848 µM) |
| CO/N=C(\C(=O)N[C@@H]1C(=O)N2C(C(=O)O)=C(Cc3cc(NS(C)(=O)=O)cc(C)c3C)CS[C@H]12)c1csc(N)n1 [Example 14, (6R,7R)-7-{[(2Z)-2-(2-amino-1,3-thiazol-4-yl)-2-(methoxyimino)acetyl]amino}-3-{2,3-dimethyl-5-[(methylsulfonyl)amino]benzyl}-8-oxo-5-thia-1-azabicyclo[4.2.0]oct-2-ene-2-carboxylic acid] | 16 (≈ 26.9 µM) | 0.03 (≈ 0.0504 µM) | 533 | 0.06 (≈ 0.101 µM) |
| CO/N=C(\C(=O)N[C@@H]1C(=O)N2C(C(=O)O)=C(Cc3cc(NS(C)(=O)=O)c(C)cc3C)CS[C@H]12)c1csc(N)n1 [Example 15, (6R,7R)-7-{[(2Z)-2-(2-amino-1,3-thiazol-4-yl)-2-(methoxyimino)acetyl]amino}-3-{2,4-dimethyl-5-[(methylsulfonyl)amino]benzyl}-8-oxo-5-thia-1-azabicyclo[4.2.0]oct-2-ene-2-carboxylic acid] | 32 (≈ 53.8 µM) | 0.125 (≈ 0.21 µM) | 256 | 0.5 (≈ 0.841 µM) |
| CO/N=C(\C(=O)N[C@@H]1C(=O)N2C(C(=O)O)=C(Cc3cccc(NS(C)(=O)=O)c3)CS[C@H]12)c1csc(N)n1 [Example 17, (6R,7R)-7-{[(2Z)-2-(2-amino-1,3-thiazol-4-yl)-2-(methoxyimino)acetyl]amino}-3-{3-[(methylsulfonyl)amino]benzyl}-8-oxo-5-thia-1-azabicyclo[4.2.0]oct-2-ene-2-carboxylic acid] | 8 (≈ 14.1 µM) | 0.03 (≈ 0.0529 µM) | 266 | 0.015 (≈ 0.0265 µM) |
| CO/N=C(\C(=O)N[C@@H]1C(=O)N2C(C(=O)O)=C(Cc3cc(NS(C)(=O)=O)cc(OC)c3)CS[C@H]12)c1csc(N)n1 [Example 18, (6R,7R)-7-{[(2Z)-2-(2-amino-1,3-thiazol-4-yl)-2-(methoxyimino)acetyl]amino}-3-{3-methoxy-5-[(methylsulfonyl)amino]benzyl}-8-oxo-5-thia-1-azabicyclo[4.2.0]oct-2-ene-2-carboxylic acid] | 16 (≈ 26.8 µM) | 0.06 (≈ 0.101 µM) | 266 | 0.08 (≈ 0.134 µM) |
| CO/N=C(\C(=O)N[C@@H]1C(=O)N2C(C(=O)O)=C(Cc3cc(C)cc(NS(C)(=O)=O)c3)CS[C@H]12)c1csc(N)n1 [Example 19, (6R,7R)-7-{[(2Z)-2-(2-amino-1,3-thiazol-4-yl)-2-(methoxyimino)acetyl]amino}-3-{3-methyl-5-[(methylsulfonyl)amino]benzyl}-8-oxo-5-thia-1-azabicyclo[4.2.0]oct-2-ene-2-carboxylic acid] | 8 (≈ 13.8 µM) | 0.008 (≈ 0.0138 µM) | 1000 | 8 (≈ 13.8 µM) |

Now from value to compound, other results behind:

| MIC (E. coli 25922) [µg/mL] | MIC (P. multo 43719) [µg/mL] | SMILES | E. coli/P. multocida (E. coli 25922) | MIC (M. haemo 43411) [µg/mL] |
| --- | --- | --- | --- | --- |
| 16 (≈ 27.8 µM) | 0.03 (≈ 0.0521 µM) | CO/N=C(\C(=O)N[C@@H]1C(=O)N2C(C(=O)O)=C(Cc3cccc(CSC(C)=O)c3C)CS[C@H]12)c1csc(N)n1 [Example 1, (6R,7R)-3-{3-[(acetylsulfanyl)methyl]-2-methylbenzyl}-7-{[(2Z)-2-(2-amino-1,3-thiazol-4-yl)-2-(methoxyimino)acetyl]amino}-8-oxo-5-thia-1-azabicyclo[4.2.0]oct-2-ene-2-carboxylic acid] | 533 | 0.06 (≈ 0.104 µM) |
| 32 (≈ 55.6 µM) | 0.06 (≈ 0.104 µM) | CO/N=C(\C(=O)N[C@@H]1C(=O)N2C(C(=O)O)=C(Cc3ccc(CSC(C)=O)cc3C)CS[C@H]12)c1csc(N)n1 [Example 2, (6R,7R)-3-{4-[(acetylsulfanyl)methyl]-2-methylbenzyl}-7-{[(2Z)-2-(2-amino-1,3-thiazol-4-yl)-2-(methoxyimino)acetyl]amino}-8-oxo-5-thia-1-azabicyclo[4.2.0]oct-2-ene-2-carboxylic acid] | 533 | 0.25 (≈ 0.434 µM) |
| 32 (≈ 55.6 µM) | 0.125 (≈ 0.217 µM) | CO/N=C(\C(=O)N[C@@H]1C(=O)N2C(C(=O)O)=C(Cc3cc(CSC(C)=O)ccc3C)CS[C@H]12)c1csc(N)n1 [Example 3, (6R,7R)-3-{5-[(acetylsulfanyl)methyl]-2-methylbenzyl}-7-{[(2Z)-2-(2-amino-1,3-thiazol-4-yl)-2-(methoxyimino)acetyl]amino}-8-oxo-5-thia-1-azabicyclo[4.2.0]oct-2-ene-2-carboxylic acid] | 256 | 0.25 (≈ 0.434 µM) |
| 16 (≈ 25.9 µM) | 0.06 (≈ 0.097 µM) | CO/N=C(\C(=O)N[C@@H]1C(=O)N2C(C(=O)O)=C(Cc3cccc(NC(=O)CSC(C)=O)c3C)CS[C@H]12)c1csc(N)n1 [Example 7, (6R,7R)-3-(3-{[(acetylsulfanyl)acetyl]amino}-2-methylbenzyl)-7-{[(2Z)-2-(2-amino-1,3-thiazol-4-yl)-2-(methoxyimino)acetyl]amino}-8-oxo-5-thia-1-azabicyclo[4.2.0]oct-2-ene-2-carboxyl is acid] | 266 | 0.06 (≈ 0.097 µM) |
| 16 (≈ 25.9 µM) | 0.06 (≈ 0.097 µM) | CO/N=C(\C(=O)N[C@@H]1C(=O)N2C(C(=O)O)=C(Cc3cc(NC(=O)CSC(C)=O)ccc3C)CS[C@H]12)c1csc(N)n1 [Example 8, (6R,7R)-3-(5-{[(acetylsulfanyl)acetyl]amino}-2-methylbenzyl)-7-{[(2Z)-2-(2-amino-1,3-thiazol-4-yl)-2-(methoxyimino)acetyl]amino}-8-oxo-5-thia-1-azabicyclo[4.2.0]oct-2-ene-2-carboxyl is acid] | 266 | 0.06 (≈ 0.097 µM) |
| 64 (≈ 99 µM) | 0.25 (≈ 0.387 µM) | CCCN(C(=O)CSC(C)=O)c1ccc(CC2=C(C(=O)O)N3C(=O)[C@@H](NC(=O)/C(=N\OC)c4csc(N)n4)[C@H]3SC2)cc1 [Example 9] | 256 | 0.5 (≈ 0.773 µM) |
| 32 (≈ 51.7 µM) | 0.06 (≈ 0.097 µM) | CO/N=C(\C(=O)N[C@@H]1C(=O)N2C(C(=O)O)=C(Cc3cccc(N(C)C(=O)CSC(C)=O)c3)CS[C@H]12)c1csc(N)n1 [Example 10] | 533 | 0.125 (≈ 0.202 µM) |
| 4 (≈ 6.94 µM) | 0.03 (≈ 0.052 µM) | CO/N=C(\C(=O)N[C@@H]1C(=O)N2C(C(=O)O)=C(Cc3cccc(NC(=O)CSC)c3)CS[C@H]12)c1csc(N)n1 [Example 11, (6R,7R)-7-{[(2Z)-2-(2-amino-1,3-thiazol-4-yl)-2-(methoxyimino)acetyl]amino}-3-(3-{[(methylsulfanyl)acetyl]amino}benzyl)-8-oxo-5-thia-1-azabicyclo[4.2.0]oct-2-ene-2-carboxylic acid] | 133 | 0.03 (≈ 0.052 µM) |
| 8 (≈ 13.2 µM) | 0.06 (≈ 0.0992 µM) | CO/N=C(\C(=O)N[C@@H]1C(=O)N2C(C(=O)O)=C(Cc3cccc(NC(=O)CSC(C)=O)c3)CS[C@H]12)c1csc(N)n1 [Example 12, (6R,7R)-3-(3-{[(acetylsulfanyl)acetyl]amino}benzyl)-7-{[(2Z)-2-(2-amino-1,3-thiazol-4-yl)-2-(methoxyimino)acetyl]amino}-8-oxo-5-thia-1-azabicyclo[4.2.0]oct-2-ene-2-carboxylic acid] | 133 | 0.03 (≈ 0.0496 µM) |
| 8 (≈ 13.2 µM) | 0.03 (≈ 0.0496 µM) | CO/N=C(\C(=O)N[C@@H]1C(=O)N2C(C(=O)O)=C(Cc3cccc(N(C(=O)CS)C(C)C)c3)CS[C@H]12)c1csc(N)n1 [Example 13, (6R,7R)-7-{[(2Z)-2-(2-amino-1,3-thiazol-4-yl)-2-(methoxyimino)acetyl]amino}-8-oxo-3-{3-[propan-2-yl(sulfanylacetyl)amino]benzyl}-5-thia-1-azabicyclo[4.2.0]oct-2-ene-2-carboxylic acid] | 266 | 0.06 (≈ 0.0992 µM) |
| 16 (≈ 27.6 µM) | 0.03 (≈ 0.0517 µM) | CO/N=C(\C(=O)N[C@@H]1C(=O)N2C(C(=O)O)=C(Cc3cccc(N(C)S(C)(=O)=O)c3)CS[C@H]12)c1csc(N)n1 [Example 16, (6R,7R)-7-{[(2Z)-2-(2-amino-1,3-thiazol-4-yl)-2-(methoxyimino)acetyl]amino}-3-{3-[methyl(methylsulfonyl)amino]benzyl}-8-oxo-5-thia-1-azabicyclo[4.2.0]oct-2-ene-2-carboxylic acid] | 533 | 0.03 (≈ 0.0517 µM) |
